In ChEMBL document CHEMBL1641500, “Carbonic anhydrase inhibitors. Inhibition studies with anions and sulfonamides of a new cytosolic enzyme from the scleractinian coral Stylophora pistillata” (Bioorg Med Chem Lett, 2011) one finds Ki data, which are given here for 24 compounds.

In one test the target is Carbonic anhydrase 1 (Homo sapiens, UniProt P00915).
The target in a further test is T1, Carbonic anhydrase (Stylophora pistillata, UniProt C0IX24).
T1 sequence (C0IX24 whole entry): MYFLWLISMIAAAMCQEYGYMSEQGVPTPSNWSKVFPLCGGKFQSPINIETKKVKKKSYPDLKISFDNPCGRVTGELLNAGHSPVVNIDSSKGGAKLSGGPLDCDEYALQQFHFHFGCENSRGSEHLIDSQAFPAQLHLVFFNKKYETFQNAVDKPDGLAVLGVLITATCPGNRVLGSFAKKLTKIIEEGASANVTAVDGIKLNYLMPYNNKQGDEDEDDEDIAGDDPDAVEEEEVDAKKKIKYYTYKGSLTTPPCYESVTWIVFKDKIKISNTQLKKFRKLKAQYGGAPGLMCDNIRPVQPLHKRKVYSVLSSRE

For the next test, the target named is T2, Alpha carbonic anhydrase (Stylophora pistillata, UniProt B5SU02).
T2 sequence (B5SU02 whole entry): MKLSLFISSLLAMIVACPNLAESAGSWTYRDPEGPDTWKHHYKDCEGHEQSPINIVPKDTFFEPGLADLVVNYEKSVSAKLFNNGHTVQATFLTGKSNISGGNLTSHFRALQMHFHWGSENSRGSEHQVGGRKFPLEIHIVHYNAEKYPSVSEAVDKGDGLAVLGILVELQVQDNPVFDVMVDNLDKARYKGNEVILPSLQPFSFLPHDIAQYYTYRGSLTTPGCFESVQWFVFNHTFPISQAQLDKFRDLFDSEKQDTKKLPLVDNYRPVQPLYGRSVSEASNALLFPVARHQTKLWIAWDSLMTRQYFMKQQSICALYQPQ

Another test has as its target Carbonic anhydrase 6 (Homo sapiens, UniProt P23280).

Sequence of Carbonic anhydrase 1 (P00915 whole entry): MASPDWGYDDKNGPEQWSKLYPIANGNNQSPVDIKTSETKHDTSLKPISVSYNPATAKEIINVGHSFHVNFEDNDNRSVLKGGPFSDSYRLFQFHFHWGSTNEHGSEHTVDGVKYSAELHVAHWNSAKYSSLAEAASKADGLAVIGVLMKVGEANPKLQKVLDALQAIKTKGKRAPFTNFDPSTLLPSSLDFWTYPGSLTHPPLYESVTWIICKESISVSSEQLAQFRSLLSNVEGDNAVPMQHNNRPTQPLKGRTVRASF
Sequence of Carbonic anhydrase 6 (P23280 whole entry): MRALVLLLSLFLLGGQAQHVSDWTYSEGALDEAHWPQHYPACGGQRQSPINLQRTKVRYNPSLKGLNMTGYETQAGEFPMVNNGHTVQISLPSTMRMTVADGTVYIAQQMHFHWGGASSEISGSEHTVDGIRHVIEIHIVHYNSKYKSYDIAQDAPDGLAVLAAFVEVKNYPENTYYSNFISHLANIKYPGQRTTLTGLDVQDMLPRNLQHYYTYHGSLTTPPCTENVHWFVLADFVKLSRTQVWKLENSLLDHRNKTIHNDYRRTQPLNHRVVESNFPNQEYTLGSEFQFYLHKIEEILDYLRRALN

For the compound `NS(=O)(=O)O` [SULFAMATE], the Ki – broadly, a dissociation constant, usually derived from enzyme kinetics or from competition with a known ligand – on Carbonic anhydrase 1 was 0.021 nM; on Carbonic anhydrase, 8.5e-06 µM; at Alpha carbonic anhydrase, 0.00081 µM.
Compound `Nc1ccc(S(N)(=O)=O)cc1I` had a Ki on Carbonic anhydrase of 0.695 µM.
On to `NS(=O)(=O)c1ccc(S(=O)(=O)Nc2cccc3c(Cl)c[nH]c23)cc1`, for which the inhibition constant Ki at Carbonic anhydrase came out at 0.394 µM.
On to `NS(N)(=O)=O` [SULFAMIDE], for which affinity at Carbonic anhydrase was put at a Ki of 5.7e-06 µM.
At Carbonic anhydrase, `NNc1ccccc1S(N)(=O)=O` had an inhibition constant (Ki) of 0.65 µM.
`NCCc1ccc(S(N)(=O)=O)cc1` gave a Ki on Carbonic anhydrase of 0.577 µM.
On the same count and under the same terms, the result for `Cc1ccc(-c2cc(C(F)(F)F)nn2-c2ccc(S(N)(=O)=O)cc2)cc1` [CELECOXIB] reads 0.69 µM.
`Nc1ccc(S(N)(=O)=O)cc1Br`: the affinity at Carbonic anhydrase corresponds to a Ki of 0.54 µM.
With `Cl` [HYDROCHLORIC ACID], the Ki was 530 µM on Carbonic anhydrase, 720 µM on Carbonic anhydrase 6 and 500 µM at Alpha carbonic anhydrase.
The matching figures for `O=NO` [NITROUS ACID]: 3150 µM, 820 µM and 770 µM.
As to `O=C1NS(=O)(=O)c2ccccc21` [SACCHARIN], the values for the Ki on Carbonic anhydrase and at Carbonic anhydrase 6 were 0.104 µM and 0.935 µM, respectively.
Consider `I` [IODIDE], for which the inhibitory constant (Ki) at Carbonic anhydrase was found to be 33000 µM; on Carbonic anhydrase 6, 810 µM; at Alpha carbonic anhydrase, 9 µM.
Consider `Cc1ccc(S(N)(=O)=O)cc1` [P-TOLUENESULFONAMIDE], for which, at Carbonic anhydrase, the Ki stood at 0.516 µM.
Turning to `OB(O)c1ccccc1` [PHENYLBORONIC ACID], the Ki on Carbonic anhydrase 1 stood at 58.6 nM; at Carbonic anhydrase, 8.1e-06 µM; on Carbonic anhydrase 6 it was 0.00082 µM; on Alpha carbonic anhydrase, 0.00068 µM.
For `NCc1ccc(S(N)(=O)=O)cc1` [MAFENIDE], the Ki on Carbonic anhydrase is 0.508 µM.
On to `O=S(O)O` [SULFUROUS ACID], for which the Ki on Carbonic anhydrase was found to be 430 µM; on Carbonic anhydrase 6, 14200 µM; on Alpha carbonic anhydrase, 410 µM.
For the compound `CCN[C@H]1CN(CCCOC)S(=O)(=O)c2sc(S(N)(=O)=O)cc21` [BRINZOLAMIDE], the Ki on Carbonic anhydrase worked out at 0.169 µM.
Still for that read-out and setting: the result for `NS(=O)(=O)c1nnc(NS(=O)(=O)c2ccccc2)s1` [BENZOLAMIDE] reads 0.214 µM.
As for `S1SSSSSSS1` [SULFUR], the Ki is 600 nM on Carbonic anhydrase 1, 3940 µM at Carbonic anhydrase, 710 µM on Carbonic anhydrase 6 and 580 µM at Alpha carbonic anhydrase.
Consider `N#CO` [CYANATE], for which the Ki stood at 690 µM at Carbonic anhydrase, 690 µM on Carbonic anhydrase 6 and 590 µM on Alpha carbonic anhydrase.
With `Br` [BROMIDE], the figures for the Ki on Carbonic anhydrase, on Carbonic anhydrase 6 and on Alpha carbonic anhydrase were 960 µM, 730 µM and 9.7 µM, respectively.
As for `F` [FLUORIDE ION], the Ki came to 920 µM on Carbonic anhydrase, 600 µM at Carbonic anhydrase 6 and 620 µM on Alpha carbonic anhydrase.
Turning to `Nc1ccc(S(=O)(=O)NCCc2ccc(S(N)(=O)=O)cc2)cc1`, the Ki on Carbonic anhydrase turned out to be 0.902 µM.
Turning to `O=[N+]([O-])O` [NITRIC ACID], the Ki on Carbonic anhydrase was determined as 990 µM; at Carbonic anhydrase 6, 760 µM; on Alpha carbonic anhydrase, 560 µM.
